What all share (assay type): cell-based, human
Test [1] has as its system histone H3 acetylation in T-47D cells. Put plainly: Quantitative LC-MS analysis of histone H3 acetylation in T-47D cells. Conditions: 24 h. From the text:
In principle the phenotype elicited by any single small molecule can be due to either an on- or off-target effect; however, if multiple chemically distinct small molecules designed to target a single gene all elicit the same phenotype, one’s confidence in their on-target mechanism becomes greater. As such, we sought to apply our knowledge of the comparative potencies of 1-3 to test whether the simplest phenotype caused by EP300/CREBBP inhibitors – cell death – was consistent with their effects on histone acetylation and a putative on-target mechanism. Compounds 1-3 were submitted for analysis in the NCI-60 screen, which has been used since 1990 to analyze the growth inhibitor effects of small molecules across a range of transformed cell lines derived from diverse tissues of origin including colorectal, renal, ovarian, prostate, lung, breast, and central nervous system tumors.[28] […] These trends were further confirmed using an orthogonal ATP-Glo assay in MCF-7 cells (Fig. S2). Subsequently, the COMPARE algorithm was used to compare the patterns of growth inhibition elicited by 1-3 in the NCI-60 assay against the >150,000 compounds analyzed in the screen to date.[29] […] Finally, the specificity of CPI-1612 (3) was directly assessed using quantitative LC-MS analysis of histone acetylation in treated cells,[33] focusing on four abundant histone acetylation markers whose writers are well-characterized: H3K9Ac (written by KAT2A/B), H3K14Ac (KAT7), H3K18Ac (EP300/CREBBP), and H3K23Ac (KAT6A/B; Fig. 3e).[26] […] An increase in the levels of singly modified H3K23Ac peptide coincided with specific loss of H3K18Ac from K18/K23 diacetylated peptide, indicative of orthogonal regulation. Overall, the parallel trends in the biochemical and cellular potencies of EP300/CREBBP inhibitors are consistent with an on-target mechanism for 1-3 and further highlight the relatively high potency of CPI-1612 (3).
T-47D cells were plated at 4 x 10^6 cells per plate in 10 cm dishes in 10 mL of media. After 16-24 h cells were treated with 5, 50, or 500 nM of 3. Compound 3 was dosed from stock solutions equal to 100x the final concentration in RPMI-1640. When necessary additional DMSO was added to maintain a constant concentration of 0.1%. Controls were treated with vehicle DMSO (0.1%). After 24 h, cells were washed with 5 mL ice cold 1x PBS, scraped in 5 mL of 1x PBS, transferred to a pre-chilled 15 mL tube, centrifuged (800 rcf x 5 min), and either snap frozen or immediately processed via the following protocol.^5 Pellets were washed twice and resuspended in 400 µL NIB (15 mM pH 7.5 Tris-HCl, 60 mM KCl, 15 mM NaCl, 5 mM MgCl2, 1 mM CaCl2, 250 mM sucrose, 1X protease inhibitor cocktail [Cell Signaling Technology #5871]), 1 mM DTT, and 10 mM sodium butyrate) with 0.3% IGEPAL CA-630 to lyse cells. Suspensions were transferred into tubes on ice and incubated for >5 min. Nuclei were pelleted (700 rcf, 4 °C , 5 min) and the supernatant discarded. Pelleted nuclei were subjected to two cycles of a wash with 500 µL NIB (without IGEPAL CA-630) followed by centrifugation (700 rcf, 4 °C , 5 min) in order to remove all IGEPAL CA-630. Nuclei were re-suspended in 200 µL 0.2 N H2SO4 and rotated at 4 °C for 2 h. Samples were then centrifuged (3,400 rcf, 4 °C , 5 min) and supernatants transferred into new tubes (pellets discarded). 66 µL of 100% TCA was added to each sample (final TCA concentration: 20%) and tubes were inverted once. Histones were precipitated at 4 °C for 16 h, then centrifuged (3,400 rcf, 4 °C , 5 min) and supernatants carefully discarded, with histones now visible as films on the sides and at the bottom of tubes. Histones were subjected to two cycles of washing (0.5 mL of ice-cold acetone + 1% 1M HCl, followed by 1 mL of 100% ice-cold acetone) followed by centrifugation (11,000 rcf, 4 °C , 5 min) after each step. Samples were air dried at room temperature and resuspended in 30 µL of ddH2O. […]

The test system of the next test is NCI-60 cell line panel. Put plainly: NCI-60 cell line screen growth inhibition (sulforhodamine B), whole panel. Conditions: compared among 1-3. From the text: In principle the phenotype elicited by any single small molecule can be due to either an on- or off-target effect; however, if multiple chemically distinct small molecules designed to target a single gene all elicit the same phenotype, one’s confidence in their on-target mechanism becomes greater. As such, we sought to apply our knowledge of the comparative potencies of 1-3 to test whether the simplest phenotype caused by EP300/CREBBP inhibitors – cell death – was consistent with their effects on histone acetylation and a putative on-target mechanism. […] Subsequently, the COMPARE algorithm was used to compare the patterns of growth inhibition elicited by 1-3 in the NCI-60 assay against the >150,000 compounds analyzed in the screen to date.[29] […] Finally, the specificity of CPI-1612 (3) was directly assessed using quantitative LC-MS analysis of histone acetylation in treated cells,[33] focusing on four abundant histone acetylation markers whose writers are well-characterized: H3K9Ac (written by KAT2A/B), H3K14Ac (KAT7), H3K18Ac (EP300/CREBBP), and H3K23Ac (KAT6A/B; Fig. 3e).[26] […]

The next test concerns SK-MEL-2. Nature of the test: NCI-60 growth inhibition (sulforhodamine B). The note with it: SK-MEL-2 (Melanoma), negative log of Molar conc., LCONC -8.

Several values for one entry are separate records, joined by “and”; a condition that tells them apart may be missing. Equal entries are not always repeated. Bounds are passed on as bounds.

For orientation: GI50 means the concentration at which growth is held to half of that of the control. One may read the IC50 as the concentration that gives 50% inhibition. On to `C[C@H](CN[C@@H](C(=O)Nc1ccc(-c2cnn(C)c2)cn1)c1ccccc1)c1ccc(C#N)cc1` [CPI-1612], for which, in test [1] (T-47D cells, 5, 50 or 500 nM, LC-MS), the “specificity on histone H3 acetylation marks (H3K9Ac, H3K14Ac, H3K18Ac, H3K23Ac)” value is “affected the abundance of only the EP300/CREBBP-dependent peptides containing H3K18Ac”. Besides, in test [1] (T-47D, 5 nM, Rep1-3), the “ratio normalized to largest mean (vehicle or 500 nM), H3_9_17 K9ac (K9Ac)” value was 160.77 and 142.38; the “ratio normalized to largest mean (vehicle or 500 nM), H3_18_26 K18ac (K18Ac)” value is 31.25 and 26.23 and 16.75; the “ratio normalized to largest mean (vehicle or 500 nM), summed H3_9_17 K14ac peptides (K14Ac)” value (from here on “ratio normalized to largest mean … (K14Ac)”) is 93.75 and 92.27 and 95.59; the “ratio, H3_9_17 K9ac (K9Ac)” value was 0.039 and 0.034. Moreover, in test [1] (T-47D, 5 nM, Rep1-3), the “ratio, H3_18_26 K18ac (K18Ac)” value was 0.0063 and 0.0053 and 0.0034; the “ratio, H3_18_26 K18acK23ac (K18K23Ac)” value was 0.0043 and 0.0044 and 0.0039; the “ratio, H3_18_26 K23ac (K23Ac)” value was 0.2133 and 0.2165 and 0.1842; the “ratio, summed H3_9_17 K14ac peptides (K14Ac)” value is 0.181 and 0.179 and 0.185. In test [1] (T-47D, 50 nM, Rep1-3), the “ratio normalized to largest mean … (K14Ac)” value is 92.31 and 100.80 and 86.46; the “ratio, H3_18_26 K23ac (K23Ac)” value was 0.2929 and 0.2070 and 0.3135; the “ratio, summed H3_9_17 K14ac peptides (K14Ac)” value was 0.167 and 0.179 and 0.195. Besides, in test [1] (T-47D, 500 nM, Rep1-3), the “ratio normalized to largest mean (vehicle or 500 nM), H3_18_26 K18ac (K18Ac)” value was 2.61 and 1.89 and 1.57; the “ratio normalized to largest mean … (K14Ac)” value was 103.05 and 88.46 and 106.21; the “ratio, H3_18_26 K18ac (K18Ac)” value is 0.0005 and 0.000379 and 0.0003; the “ratio, H3_18_26 K23ac (K23Ac)” value is 0.2977 and 0.3570 and 0.3048. Further, the “ratio, summed H3_9_17 K14ac peptides (K14Ac)” value in test [1] (T-47D, 500 nM, Rep1-3) is 0.199 and 0.171 and 0.206. Besides, the “inhibition of cell growth, NCI-60 screen” value in the test with NCI-60 cell line panel was “most potent inhibitor of cell growth”. In addition, in the test with SK-MEL-2 (Homo sapiens, read-out: GI50 NLOGVALUE (converted)), the concentration for 50% growth inhibition (GI50) was 0.851 µM. Also, the IC50 in the test with SK-MEL-2 (Homo sapiens, read-out: IC50 NLOGVALUE) is more than 100 µM. Moreover, in the test with SK-MEL-2 (Homo sapiens, read-out: LC50 NLOGVALUE), the CC50 is more than 100 µM. In addition, in the test with SK-MEL-2, the “TGI NLOGVALUE” worked out at 4.

The values above are taken from publication doi:10.1101/2023.05.15.540887, “Comparative analysis of drug-like EP300/CREBBP acetyltransferase inhibitors” (bioRxiv, 2023).
